# Test system: Escherichia coli
# Test: Compound was tested for its ability to inhibit DNA strand scission induced by resveratrol and Cu2+, at concentration 1 mM
# Type: functional
row,Structure (SMILES),inhibition at 1000 µM
1,Cc1ccoc1C,98.7%
2,O=S(=O)(O)c1cc(O)c(O)c(S(=O)(=O)O)c1 [TIRON],96.5%

# Test system: Escherichia coli
# Test: Compound was tested for its ability to inhibit DNA strand scission induced by resveratrol and Cu2+, at concentration 50 mM
# Type: functional
row,Structure (SMILES),inhibition at 50000 µM
1,CCO [ALCOHOL],1.9%
2,C[S+](C)[O-] [DIMETHYL SULFOXIDE],2.8%
3,OC[C@@H](O)[C@@H](O)[C@H](O)[C@H](O)CO [MANNITOL],0.6%
4,[I-].[K+] [POTASSIUM IODIDE],61.5%
5,[N-]=[N+]=[N-] [SODIUM AZIDE],1.2%
6,NC(N)=S [THIOUREA],93.8%
